Assay results published in patent publication US20140309265A1, “MACROCYCLIC COMPOUNDS FOR INHIBITION OF INHIBITORS OF APOPTOSIS” (Ensemble Therapeutics, priority 2011, published 2014).
pIC50: −log10 of the molar value. Where two headings read alike, the source gives them in different places.

Legend:
Type in all cases: binding
[1] = target: T1, XIAP His-BIR2 (124-240/C202A/C213G) (Homo sapiens, UniProt P98170, C202A/C213G); test: XIAP-BIR2/SMAC Peptide AlphaScreen Assay; conditions: XIAP BIR2, AlphaScreen, Table 2; read-out: BIR2 IC50
T1 construct: additions of His-BIR2 (124-240/C202A/C213G), Biotinylated SMAC peptide
T1 sequence (P98170 124-240 C202A/C213G): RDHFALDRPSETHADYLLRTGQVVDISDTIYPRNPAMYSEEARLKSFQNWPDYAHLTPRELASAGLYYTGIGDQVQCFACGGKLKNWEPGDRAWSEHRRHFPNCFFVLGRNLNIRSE
Description: A. XIAP-BIR2/SMAC Peptide AlphaScreen Assay Assays were performed in white, flat-bottom, 384-well ProxiPlates (Perkin Elmer). […] The reaction was incubated at room temperature for 60 minutes. After 60 minutes, 2.5 μL of Alphascreen detection reagent (Perkin Elmer) was added to the reaction mixture and incubated at room temperature in the dark for 120 minutes. The Alphascreen signal generated by the reaction was detected on the Envision Plate Reader. […] Compounds were dissolved at 10 mM in dimethylsulfoxide (DMSO) and evaluated at eleven concentrations. IC50 values were derived by non-linear regression analysis.

[2] = target: N-His-Tb-BIR3(241-356, XIAP) (Homo sapiens, UniProt P98170); test: XIAP-BIR3 SMAC Peptide Fluorescence Polarization Assay (FPA)
N-His-Tb-BIR3(241-356, XIAP), sequence (P98170 241-356): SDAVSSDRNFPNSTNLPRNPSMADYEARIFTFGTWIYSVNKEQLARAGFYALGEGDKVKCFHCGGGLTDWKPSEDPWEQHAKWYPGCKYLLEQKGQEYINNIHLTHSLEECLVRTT

His-BIR3 (241-356, XIAP) = target: T2, His-BIR3 (241-356, XIAP) (Homo sapiens, UniProt P98170); test: XIAP-BIR3/SMAC Homogeneous Time Resolved Fluorescence (HTRF) Assay; conditions: Table 4
T2 construct: additions of His-BIR3 (241-356, XIAP), fluorescein labeled SMAC peptide
T2 sequence (P98170 241-356): as above

[3] = target: T3, His-BIR2-3 (125-356, C202A/C213G, XIAP) (Homo sapiens, UniProt P98170, C202A/C213G); test: XIAP-BIR2-3 Dimeric SMAC Peptide Homogeneous Time Resolved Fluorescence (HTRF) Assay; conditions: XIAP BIR2-3, HTRF, Table 4
T3 construct: additions of His-BIR2-3 (125-356, C202A/C213G, XIAP), fluorescein labeled dimeric SMAC peptide
T3 sequence (P98170 125-356 C202A/C213G): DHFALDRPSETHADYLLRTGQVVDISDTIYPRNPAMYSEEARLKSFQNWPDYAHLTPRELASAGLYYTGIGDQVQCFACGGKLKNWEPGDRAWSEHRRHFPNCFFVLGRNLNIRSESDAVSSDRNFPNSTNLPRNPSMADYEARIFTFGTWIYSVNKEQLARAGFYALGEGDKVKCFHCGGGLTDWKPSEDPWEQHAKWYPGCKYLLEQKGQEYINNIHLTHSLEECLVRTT

Row | pIC50 ([2]; XIAP BIR3, FPA, Table 2, read-out: BIR3 IC50) | pIC50 (His-BIR3 (241-356, XIAP)) | pIC50 [3] | SMILES | pIC50 [1] | pIC50 [2]
1 |  |  |  | CN[C@@H](C)C(=O)N[C@H](C(=O)N1C[C@@H]2C[C@H]1C(=O)N[C@@H](Cc1ccccc1)C(=O)N[C@H](C(=O)O)Cc1ccc(cc1)OCc1cn(nn1)[C@H]1C[C@@H](C(=O)N[C@@H](Cc3ccccc3)C(=O)N[C@H](C(=O)O)Cc3ccc(cc3)OCc3cn2nn3)N(C(=O)[C@@H](NC(=O)[C@H](C)NC)C(C)C)C1)C(C)C [Compound 101] | > 5.70 | 7.00 to 7.30
2 |  |  |  | CN[C@@H](C)C(=O)N[C@H](C(=O)N1C[C@@H]2C[C@H]1C(=O)N[C@@H](Cc1ccccc1)C(=O)N[C@@H](C(=O)O)Cc1ccc(cc1)NC(=O)CCc1cn(nn1)[C@H]1C[C@@H](C(=O)N[C@@H](Cc3ccccc3)C(=O)N[C@@H](C(=O)O)Cc3ccc(cc3)NC(=O)CCc3cn2nn3)N(C(=O)[C@@H](NC(=O)[C@H](C)NC)C(C)C)C1)C(C)C [Compound 102] | > 5.70 | 7.00 to 7.30
3 | < 7.00 |  |  | CN[C@@H](C)C(=O)N[C@H](C(=O)N1CCc2cn(nn2)CCCOc2ccc(cc2)C[C@@H](C(=O)O)NC(=O)[C@H](Cc2ccccc2)NC(=O)CN(C(=O)[C@@H](NC(=O)[C@H](C)NC)C(C)C)CCc2cn(nn2)CCCOc2ccc(cc2)C[C@@H](C(=O)O)NC(=O)[C@H](Cc2ccccc2)NC(=O)C1)C(C)C [Compound 103] | 4.92 to 5.70 | 
4 |  |  |  | CN[C@@H](C)C(=O)N[C@H](C(=O)N1C[C@@H]2C[C@H]1C(=O)N[C@@H](Cc1ccccc1)C(=O)N[C@H](C(=O)N1CCN(C)CC1)Cc1ccc(cc1)OCc1cn(nn1)[C@H]1C[C@@H](C(=O)N[C@@H](Cc3ccccc3)C(=O)N[C@H](C(=O)N3CCN(C)CC3)Cc3ccc(cc3)OCc3cn2nn3)N(C(=O)[C@@H](NC(=O)[C@H](C)NC)C(C)C)C1)C(C)C [Compound 104] | < 4.92 | 7.00 to 7.30
5 |  |  |  | CCN(CC)C(=O)[C@@H]1Cc2ccc(cc2)OCc2cn(nn2)[C@H]2C[C@@H](C(=O)N[C@@H](Cc3ccccc3)C(=O)N[C@H](C(=O)N(CC)CC)Cc3ccc(cc3)OCc3cn(nn3)[C@H]3C[C@@H](C(=O)N[C@@H](Cc4ccccc4)C(=O)N1)N(C(=O)[C@@H](NC(=O)[C@H](C)NC)C(C)C)C3)N(C(=O)[C@@H](NC(=O)[C@H](C)NC)C(C)C)C2 [Compound 105] | < 4.92 | 7.00 to 7.30
6 |  |  |  | CN[C@@H](C)C(=O)N[C@H](C(=O)N1C[C@@H]2C[C@H]1C(=O)N[C@@H](Cc1ccccc1)C(=O)N[C@H](C(=O)NCCN(C)C)Cc1ccc(cc1)OCc1cn(nn1)[C@H]1C[C@@H](C(=O)N[C@@H](Cc3ccccc3)C(=O)N[C@H](C(=O)NCCN(C)C)Cc3ccc(cc3)OCc3cn2nn3)N(C(=O)[C@@H](NC(=O)[C@H](C)NC)C(C)C)C1)C(C)C [Compound 106] | < 4.92 | 7.00 to 7.30
7 |  |  |  | CN[C@@H](C)C(=O)N[C@H](C(=O)N1C[C@@H]2C[C@H]1C(=O)N[C@@H](CCc1ccccc1)C(=O)N[C@H](C(=O)O)Cc1ccc(cc1)OCc1cn(nn1)[C@H]1C[C@@H](C(=O)N[C@@H](CCc3ccccc3)C(=O)N[C@H](C(=O)O)Cc3ccc(cc3)OCc3cn2nn3)N(C(=O)[C@@H](NC(=O)[C@H](C)NC)C(C)C)C1)C(C)C [Compound 107] | > 5.70 | < 7.00
8 |  |  |  | CN[C@@H](C)C(=O)N[C@@H](CC1CCCCC1)C(=O)N1C[C@@H]2C[C@H]1C(=O)N[C@@H](Cc1ccccc1)C(=O)N[C@H](C(=O)O)Cc1ccc(cc1)OCc1cn(nn1)[C@H]1C[C@@H](C(=O)N[C@@H](Cc3ccccc3)C(=O)N[C@H](C(=O)O)Cc3ccc(cc3)OCc3cn2nn3)N(C(=O)[C@H](CC2CCCCC2)NC(=O)[C@H](C)NC)C1 [Compound 109] | > 5.70 | > 7.30
9 |  |  |  | CN[C@@H](C)C(=O)N[C@H](C(=O)N1C[C@@H]2C[C@H]1C(=O)N[C@@H](Cc1cccc(C(F)(F)F)c1)C(=O)N[C@H](C(=O)O)Cc1ccc(cc1)COc1cn(nn1)[C@H]1C[C@@H](C(=O)N[C@@H](Cc3cccc(C(F)(F)F)c3)C(=O)N[C@H](C(=O)O)Cc3ccc(cc3)OCc3cn2nn3)N(C(=O)[C@@H](NC(=O)[C@H](C)NC)C(C)C)C1)C(C)C [Compound 112] | 4.92 to 5.70 | > 7.30
10 |  |  |  | CN[C@@H](C)C(=O)N[C@H](C(=O)N1C[C@@H]2C[C@H]1C(=O)N[C@@H](Cc1ccc(C(F)(F)F)cc1)C(=O)N[C@H](C(=O)O)Cc1ccc(cc1)COc1cn(nn1)[C@H]1C[C@@H](C(=O)N[C@@H](Cc3ccc(C(F)(F)F)cc3)C(=O)N[C@H](C(=O)O)Cc3ccc(cc3)OCc3cn2nn3)N(C(=O)[C@@H](NC(=O)[C@H](C)NC)C(C)C)C1)C(C)C [Compound 113] | < 4.92 | 7.00 to 7.30
11 |  |  |  | CN[C@@H](C)C(=O)N[C@H](C(=O)N1C[C@@H]2C[C@H]1C(=O)N[C@@H](Cc1ccccc1)C(=O)NCc1cn(nn1)[C@H]1C[C@@H](C(=O)N[C@@H](Cc3ccccc3)C(=O)NCc3cn2nn3)N(C(=O)[C@@H](NC(=O)[C@H](C)NC)C(C)C)C1)C(C)C [Compound 116] | > 5.70 | 
12 |  |  |  | CN[C@@H](C)C(=O)N[C@H](C(=O)N1C[C@@H]2CC1C(=O)N[C@@H](Cc1ccccc1)C(=O)N[C@H](C(=O)O)Cc1ccc(cc1)OCc1cn(nn1)[C@H]1C[C@@H](C(=O)N[C@@H](Cc3ccccc3)C(=O)NCc3cn2nn3)N(C(=O)[C@@H](NC(=O)[C@H](C)NC)C(C)C)C1)C(C)C [Compound 135] | > 5.70 | 
13 |  |  |  | CN[C@@H](C)C(=O)N[C@H](C(=O)N1C[C@@H]2C[C@H]1C(=O)N[C@@H](Cc1ccc3ccccc3c1)C(=O)N[C@H](C(=O)O)Cc1ccc(cc1)OCc1ccc(cc1)-c1cn(nn1)[C@H]1C[C@@H](C(=O)N[C@@H](Cc3ccc4ccccc4c3)C(=O)N[C@H](C(=O)O)Cc3ccc(cc3)OCc3cn2nn3)N(C(=O)[C@@H](NC(=O)[C@H](C)NC)C(C)(C)C)C1)C(C)(C)C [Compound 1000] |  | 7.00 to 7.30
14 |  | > 8.00 | ≥ 9.00 | CN[C@@H](C)C(=O)N[C@H](C(=O)N1C[C@@H]2C[C@H]1C(=O)N[C@@H](Cc1ccc3ccccc3c1)C(=O)N[C@H](C(=O)O)Cc1ccc(cc1)OCc1cn(nn1)[C@H]1C[C@@H](C(=O)N[C@@H](Cc3ccc4ccccc4c3)C(=O)N[C@H](C(=O)NS(=O)(=O)CCCC(=O)O)Cc3ccc(cc3)OCc3cn2nn3)N(C(=O)[C@@H](NC(=O)[C@H](C)NC)C(C)(C)C)C1)C(C)(C)C [Compound 1045] |  | 
15 |  | > 8.00 | ≥ 9.00 | CN[C@@H](C)C(=O)N[C@H](C(=O)N1C[C@@H]2C[C@H]1C(=O)N[C@@H](Cc1ccc3ccccc3c1)C(=O)N[C@H](C(=O)O)Cc1ccc(cc1)OCc1cn(nn1)[C@H]1C[C@@H](C(=O)N[C@@H](Cc3ccc4ccccc4c3)C(=O)N[C@H](C(=O)NS(=O)(=O)c3ccncc3)Cc3ccc(cc3)OCc3cn2nn3)N(C(=O)[C@@H](NC(=O)[C@H](C)NC)C(C)(C)C)C1)C(C)(C)C [Compound 1046] |  | 
16 |  | > 8.00 | ≥ 9.00 | CN[C@@H](C)C(=O)N[C@H](C(=O)N1C[C@@H]2C[C@H]1C(=O)N[C@@H](Cc1ccc3ccccc3c1)C(=O)N[C@H](C(=O)O)Cc1ccc(cc1)OCc1cn(nn1)[C@H]1C[C@@H](C(=O)N[C@@H](Cc3ccc4ccccc4c3)C(=O)N[C@H](c3nnn[nH]3)Cc3ccc(cc3)OCc3cn2nn3)N(C(=O)[C@@H](NC(=O)[C@H](C)NC)C(C)(C)C)C1)C(C)(C)C [Compound 1048] |  | 
17 |  | < 7.00 | 8.00 to 9.00 | CN[C@@H](C)C(=O)N[C@H](C(=O)N1CCN2CCn3cc(nn3)C[C@@H](C(=O)OC)NC(=O)[C@H](Cc3ccc4ccccc4c3)NC(=O)[C@@H]3CN(CCN3C(=O)[C@@H](NC(=O)[C@H](C)NC)C(C)C)CCn3cc(nn3)C[C@@H](C(=O)O)NC(=O)[C@H](Cc3ccc4ccccc4c3)NC(=O)[C@@H]1C2)C(C)C [Compound 1049] |  | 
18 |  | < 7.00 | < 8.00 | CN[C@@H](C)C(=O)N[C@H](C(=O)N1CCN2C[C@H]1C(=O)N[C@@H](Cc1ccc3ccccc3c1)C(=O)N[C@H](C(=O)O)Cc1cn(nn1)CC(=O)N1CCN(C(=O)[C@@H](NC(=O)[C@H](C)NC)C(C)(C)C)[C@@H](C1)C(=O)N[C@@H](Cc1ccc3ccccc3c1)C(=O)N[C@H](C(=O)O)Cc1cn(nn1)CC2=O)C(C)(C)C [Compound 1051] |  | 
19 |  | > 8.00 | ≥ 9.00 | CN[C@@H](C)C(=O)N[C@H](C(=O)N1C[C@@H]2C[C@H]1C(=O)N[C@@H](Cc1ccc3ccccc3c1)C(=O)N[C@H](C(=O)O)Cc1ccc(cc1)OCc1cn(nn1)[C@H]1C[C@@H](C(=O)N[C@@H](Cc3ccc4ccccc4c3)C(=O)N[C@H](C(=O)NS(=O)(=O)CCCNC(C)=O)Cc3ccc(cc3)OCc3cn2nn3)N(C(=O)[C@@H](NC(=O)[C@H](C)NC)C(C)(C)C)C1)C(C)(C)C [Compound 1052] |  | 

Row | SMILES | pIC50 ([2]; XIAP BIR3, FPA, Table 2, read-out: BIR3 IC50) | pIC50 (His-BIR3 (241-356, XIAP)) | pIC50 [3] | pIC50 [1] | pIC50 [2]
20 | CN[C@@H](C)C(=O)NC(C(=O)N1C[C@@H]2C[C@H]1C(=O)N[C@@H](Cc1ccc3ccccc3c1)C(=O)N[C@H](c1nc(=O)o[nH]1)Cc1ccc(cc1)OCc1cn(nn1)[C@H]1C[C@@H](C(=O)N[C@@H](Cc3ccc4ccccc4c3)C(=O)N[C@H](C(=O)O)Cc3ccc(cc3)OCc3cn2nn3)N(C(=O)[C@@H](NC(=O)[C@H](C)NC)C(C)(C)C)C1)C(C)(C)C (stereo partly shown) [Compound 1047] |  | > 8.00 | ≥ 9.00 |  | 
